Experimental data reported in patent US20050107386A1, “Methods of treating diseases and disorders by targeting multiple kinases” (priority 2003, published 2005).

How the values were obtained:
PRAK(h) = target: T1, PRAK(h) (Homo sapiens, UniProt Q8IW41); experiment: PRAK(h) kinase assay; type: biochemical; conditions: 3 μM; percent of control kinase activity
T1 sequence (Q8IW41 1-473): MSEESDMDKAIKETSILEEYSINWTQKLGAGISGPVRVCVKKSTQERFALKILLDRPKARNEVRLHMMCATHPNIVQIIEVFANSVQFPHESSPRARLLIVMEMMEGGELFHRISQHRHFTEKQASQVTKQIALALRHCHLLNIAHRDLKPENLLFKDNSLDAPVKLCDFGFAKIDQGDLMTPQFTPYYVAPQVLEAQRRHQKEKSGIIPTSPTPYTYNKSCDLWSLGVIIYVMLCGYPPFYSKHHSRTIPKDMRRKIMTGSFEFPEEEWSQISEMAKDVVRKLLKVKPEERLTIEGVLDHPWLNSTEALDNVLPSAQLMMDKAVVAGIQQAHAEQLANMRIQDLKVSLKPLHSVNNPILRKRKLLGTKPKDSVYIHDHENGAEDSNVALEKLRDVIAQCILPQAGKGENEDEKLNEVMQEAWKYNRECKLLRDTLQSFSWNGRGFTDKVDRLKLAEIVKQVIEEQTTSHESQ
Method: (§1) Six compounds (presumptive single agents) were tested against a panel of 50 kinases. The results are presented in Table 2; numbers for each kinase indicate the percent of control kinase activity in the presence of a 3μM concentration of the indicated agent.
(§2) Agents that target two or more different kinases are useful in the methods of the invention as described elsewhere herein. Such compounds may be identified, and their effect on certain kinases may be identified, using the assays briefly described below in Examples 4-83. Each of these assays was carried out as described in Davies et al., Biochem. J., 351:95-105 (2000). All assays were carried out at 10 μM ATP unless otherwise noted.
(§3) In a final reaction volume of 25 μl, PRAK (h) (5-10 mU) is incubated with 50 mM Na-β-glycerophosphate pH 7.5, 0.1 mM EGTA, 30 μM […] (SEQ ID NO11), 10 mM MgAcetate and [γ-^33P-ATP] (specific activity approx. 500 cpm/pmol, concentration as required). The reaction is initiated by the addition of Mg^2+ [γ-^33P-ATP]. After incubation for 40 minutes at room temperature, the reaction is stopped by the addition of 5 μl of a 3% phosphoric acid solution. 10 μl of the reaction is then spotted onto a P30 filtermat and washed three times for 5 minutes in 50 mM phosphoric acid and once in methanol prior to drying and scintillation counting.

AMPK(r) = AMPK(r) kinase assay; type: biochemical, rat; conditions: 3 μM; percent of control kinase activity
Method: as §1, §2
In a final reaction volume of 25 μl, AMPK(r) (5-10 mU) is incubated with 50 mM Hepes pH 7.4, 1 mM DTT, 0.02% Brij-35, 200 μM AMP, 200 μM […] (SEQ ID NO:4), 10 mM MgAcetate and [γ-^33P-ATP] (Specific activity approx. 500 cpm/pmol, concentration as required). The reaction is initiated by the addition of Mg^2+ [γ-^33P-ATP]. After incubation for 40 minutes at room temperature, the reaction is stopped by the addition of 5 μl of a 3% phosphoric acid solution. 10 μl of the reaction is then spotted onto a P30 filtermat and washed three times for 5 minutes in 75 mM phosphoric acid and once in methanol prior to drying and scintillation counting.

CaMKII(r) = CaMKII(r) kinase assay; type: biochemical, rat; conditions: 3 μM; percent of control kinase activity
Method: as §1, §2
In a final reaction volume of 25 μl, CaMKII (r) (5-10 mU) is incubated with 40 mM Hepes pH 7.4, 5 mM CaCl2, 30 μg/ml calmodulin, 30 μM […] (SEQ ID NO:11), 10 mM MgAcetate and [γ-^33P-ATP] (specific activity approx. 500 cpm/pmol, concentration as required). The reaction is initiated by the addition of Mg^2+ [γ-^33P-ATP]. After incubation for 40 minutes at room temperature, the reaction is stopped by the addition of 5 μl of a 3% phosphoric acid solution. 10 μl of the reaction is then spotted onto a P30 filtermat and washed three times for 5 minutes in 75 mM phosphoric acid and once in methanol prior to drying and scintillation counting.

CDK1/cyclinB(h) = CDK1/cyclinB(h) (Homo sapiens, UniProt P06493); experiment: CDK1/cyclinB(h) kinase assay; type: biochemical; conditions: for Inhibitory activity (% of control), CDK1/cyclinB(h): 3 μM, percent of control kinase activity
Sequence of CDK1/cyclinB(h) (P06493 whole entry): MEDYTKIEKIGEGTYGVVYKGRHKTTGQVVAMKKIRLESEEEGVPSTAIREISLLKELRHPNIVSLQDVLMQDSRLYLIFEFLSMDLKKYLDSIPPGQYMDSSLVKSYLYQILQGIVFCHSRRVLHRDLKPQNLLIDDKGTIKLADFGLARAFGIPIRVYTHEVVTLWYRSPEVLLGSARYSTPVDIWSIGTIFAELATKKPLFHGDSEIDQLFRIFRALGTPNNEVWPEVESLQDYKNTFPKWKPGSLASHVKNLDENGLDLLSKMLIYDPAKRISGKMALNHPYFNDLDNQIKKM
Sequence of CDK1/cyclinB(h) (P14635 whole entry partner): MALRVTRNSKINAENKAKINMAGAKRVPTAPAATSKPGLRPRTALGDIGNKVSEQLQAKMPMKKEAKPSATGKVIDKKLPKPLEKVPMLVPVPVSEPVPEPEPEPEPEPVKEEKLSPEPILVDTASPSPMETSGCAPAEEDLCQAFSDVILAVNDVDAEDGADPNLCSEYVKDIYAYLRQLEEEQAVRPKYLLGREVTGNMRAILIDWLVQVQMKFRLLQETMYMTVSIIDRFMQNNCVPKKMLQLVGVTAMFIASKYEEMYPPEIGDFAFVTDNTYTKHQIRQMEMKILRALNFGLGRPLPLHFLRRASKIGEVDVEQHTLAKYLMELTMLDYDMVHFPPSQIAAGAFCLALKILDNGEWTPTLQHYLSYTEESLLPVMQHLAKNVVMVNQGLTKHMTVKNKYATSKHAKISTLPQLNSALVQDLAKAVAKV
Method: as §1, §2
In a final reaction volume of 25 μl, CDK1/cyclinB (h) (5-10 mU) is incubated with 8 mM MOPS pH 7.0, 0.2 mM EDTA, 0.1 mg/ml histone H1, 10 mM MgAcetate and [γ-^33p-ATP] (specific activity approx. 500 cpm/pmol, concentration as required). The reaction is initiated by the addition of Mg^2+ [γ-33 P-ATP]. After incubation for 40 minutes at room temperature, the reaction is stopped by the addition of 5 μl of a 3% phosphoric acid solution. 10 μl of the reaction is then spotted onto a P30 filtermat and washed three times for 5 minutes in 75 mM phosphoric acid and once in methanol prior to drying and scintillation counting.

MSK1(h) = MSK1(h) (Homo sapiens, UniProt O75582); experiment: MSK1(h) kinase assay; type: biochemical; conditions: 3 μM; percent of control kinase activity
Sequence of MSK1(h) (O75582 whole entry): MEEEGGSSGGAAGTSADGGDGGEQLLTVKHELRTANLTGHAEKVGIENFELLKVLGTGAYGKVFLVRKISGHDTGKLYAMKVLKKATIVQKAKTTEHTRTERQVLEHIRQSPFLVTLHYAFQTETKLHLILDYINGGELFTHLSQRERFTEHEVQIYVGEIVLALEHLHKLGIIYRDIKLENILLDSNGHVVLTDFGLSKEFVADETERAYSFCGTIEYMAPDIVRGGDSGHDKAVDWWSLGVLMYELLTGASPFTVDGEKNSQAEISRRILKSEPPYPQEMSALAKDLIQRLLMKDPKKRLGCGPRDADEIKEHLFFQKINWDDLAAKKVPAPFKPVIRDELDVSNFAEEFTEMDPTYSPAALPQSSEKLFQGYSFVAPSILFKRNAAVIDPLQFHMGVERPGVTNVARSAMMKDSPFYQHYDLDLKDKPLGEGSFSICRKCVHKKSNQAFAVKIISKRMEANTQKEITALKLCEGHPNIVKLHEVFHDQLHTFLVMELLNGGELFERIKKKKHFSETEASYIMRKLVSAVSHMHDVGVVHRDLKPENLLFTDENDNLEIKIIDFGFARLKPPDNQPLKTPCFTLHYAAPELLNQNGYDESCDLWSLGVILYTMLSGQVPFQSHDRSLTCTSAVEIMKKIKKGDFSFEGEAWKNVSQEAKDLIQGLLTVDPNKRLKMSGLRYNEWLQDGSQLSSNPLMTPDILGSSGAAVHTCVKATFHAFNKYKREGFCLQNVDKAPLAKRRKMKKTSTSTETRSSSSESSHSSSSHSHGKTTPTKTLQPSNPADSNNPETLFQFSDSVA
Method: as §1, §2
In a final reaction volume of 25 μl, MSK1 (h) (5-10 mU) is incubated with 8 mM MOPS pH 7.0, 0.2 mM EDTA, 30 μM […] (SEQ ID NO:2), 10 mM MgAcetate and [γ-^33P-ATP] (specific activity approx. 500 cpm/pmol, concentration as required). The reaction is initiated by the addition of Mg^2+ [γ-^33P-ATP]. After incubation for 40 minutes at room temperature, the reaction is stopped by the addition of 5 μl of a 3% phosphoric acid solution. 10 μl of the reaction is then spotted onto a P30 filtermat and washed three times for 5 minutes in 75 mM phosphoric acid and once in methanol prior to drying and scintillation counting.

ROCK-II(h) = ROCK-II(h) (Homo sapiens, UniProt O75116); experiment: ROCK-II(h) kinase assay; type: biochemical; conditions: 3 μM; percent of control kinase activity
Sequence of ROCK-II(h) (O75116 whole entry): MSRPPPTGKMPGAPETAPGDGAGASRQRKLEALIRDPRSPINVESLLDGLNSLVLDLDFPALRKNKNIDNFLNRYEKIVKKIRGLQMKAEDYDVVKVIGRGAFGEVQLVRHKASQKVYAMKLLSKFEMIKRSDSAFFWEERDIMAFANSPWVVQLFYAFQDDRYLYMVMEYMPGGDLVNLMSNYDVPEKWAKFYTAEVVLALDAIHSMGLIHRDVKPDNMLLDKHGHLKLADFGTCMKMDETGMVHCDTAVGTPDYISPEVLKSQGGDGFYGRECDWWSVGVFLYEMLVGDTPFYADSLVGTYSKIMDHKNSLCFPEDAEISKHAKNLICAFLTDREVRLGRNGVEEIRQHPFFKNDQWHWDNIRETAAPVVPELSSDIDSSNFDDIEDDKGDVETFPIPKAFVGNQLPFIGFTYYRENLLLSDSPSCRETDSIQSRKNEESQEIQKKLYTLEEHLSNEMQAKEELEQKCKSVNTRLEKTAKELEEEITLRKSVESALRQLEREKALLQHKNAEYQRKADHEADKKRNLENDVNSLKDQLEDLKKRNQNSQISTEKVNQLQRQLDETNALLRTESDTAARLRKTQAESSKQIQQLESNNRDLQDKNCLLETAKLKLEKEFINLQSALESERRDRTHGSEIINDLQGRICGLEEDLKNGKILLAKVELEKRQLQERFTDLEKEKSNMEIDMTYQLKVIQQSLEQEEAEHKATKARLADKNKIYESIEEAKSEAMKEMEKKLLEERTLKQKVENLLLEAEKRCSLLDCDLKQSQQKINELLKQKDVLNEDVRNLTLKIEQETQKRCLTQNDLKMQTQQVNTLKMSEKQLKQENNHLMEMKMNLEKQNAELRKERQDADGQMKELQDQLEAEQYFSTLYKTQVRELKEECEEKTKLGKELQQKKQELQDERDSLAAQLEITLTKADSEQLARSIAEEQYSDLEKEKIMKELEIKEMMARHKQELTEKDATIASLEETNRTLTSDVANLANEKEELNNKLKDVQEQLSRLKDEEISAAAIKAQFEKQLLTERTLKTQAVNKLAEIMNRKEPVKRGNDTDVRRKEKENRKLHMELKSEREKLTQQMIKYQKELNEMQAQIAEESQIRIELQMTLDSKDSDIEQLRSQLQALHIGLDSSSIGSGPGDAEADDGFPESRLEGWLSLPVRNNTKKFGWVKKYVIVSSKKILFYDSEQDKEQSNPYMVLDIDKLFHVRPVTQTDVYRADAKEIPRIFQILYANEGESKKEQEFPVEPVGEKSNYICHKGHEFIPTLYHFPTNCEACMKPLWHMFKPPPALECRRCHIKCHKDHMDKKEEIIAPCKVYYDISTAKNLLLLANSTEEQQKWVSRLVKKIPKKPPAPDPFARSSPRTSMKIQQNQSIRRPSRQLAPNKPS
Method: as §1, §2
as §3, with “μl, ROCK-II” for “μl, PRAK”, “mM Tris” for “mM Na-β-glycerophosphate”, “ID NO:8),” for “ID NO11),”, “in 75” for “in 50”

Rsk1(h) = Rsk1(h) (Homo sapiens, UniProt Q15418); experiment: Rsk1(h) kinase assay; type: biochemical; conditions: for Inhibitory activity (% of control), Rsk1(h): 3 μM, percent of control kinase activity
Sequence of Rsk1(h) (Q15418 whole entry): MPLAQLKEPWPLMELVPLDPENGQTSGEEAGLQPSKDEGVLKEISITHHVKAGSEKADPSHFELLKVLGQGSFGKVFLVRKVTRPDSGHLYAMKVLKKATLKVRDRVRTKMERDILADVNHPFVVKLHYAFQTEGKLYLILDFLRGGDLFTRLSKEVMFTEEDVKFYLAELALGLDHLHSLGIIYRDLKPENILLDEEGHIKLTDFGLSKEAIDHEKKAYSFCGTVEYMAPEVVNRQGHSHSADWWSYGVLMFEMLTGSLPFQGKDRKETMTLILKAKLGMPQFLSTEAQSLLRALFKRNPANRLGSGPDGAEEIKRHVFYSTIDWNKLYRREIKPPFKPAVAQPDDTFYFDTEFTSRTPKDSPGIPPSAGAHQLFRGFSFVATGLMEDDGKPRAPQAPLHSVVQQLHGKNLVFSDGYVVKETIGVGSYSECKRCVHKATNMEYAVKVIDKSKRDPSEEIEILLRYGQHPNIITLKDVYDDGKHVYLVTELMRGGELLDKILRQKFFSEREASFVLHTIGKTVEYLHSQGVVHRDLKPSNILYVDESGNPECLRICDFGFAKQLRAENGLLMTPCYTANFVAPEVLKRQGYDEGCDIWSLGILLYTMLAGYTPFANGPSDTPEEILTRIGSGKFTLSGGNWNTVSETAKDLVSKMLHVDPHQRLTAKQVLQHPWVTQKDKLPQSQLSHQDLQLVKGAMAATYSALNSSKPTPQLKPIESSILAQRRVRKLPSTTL

Compound	Inhibitory activity (% of control), PRAK(h) (PRAK(h))	Inhibitory activity (% of control), AMPK(r) (AMPK(r))	Inhibitory activity (% of control), CaMKII(r) (CaMKII(r))	Inhibitory activity (% of control), CDK1/cyclinB(h) (CDK1/cyclinB(h))	Inhibitory activity (% of control), MSK1(h) (MSK1(h))	Inhibitory activity (% of control), ROCK-II(h) (ROCK-II(h))	Inhibitory activity (% of control), Rsk1(h) (Rsk1(h))	inhibitory activity against CDK1, in words (CDK1/cyclinB(h); summary of Table 2)	inhibitory activity against Rsk1, in words (Rsk1(h); summary of Table 2)
CC(C)Cc1nc(-c2ccc3[nH]nc(-c4ccc5cc(OCCN6CCCC6)ccc5c4)c3c2)n[nH]1 [CC002, 5-(5-Isobutyl-1H-[1,2,4]Triazol-3-yl)-3-[6-(2-Pyrrolidin-1-yl-Ethoxy)-Naphthalen-2-yl]-1H-Indazole]	6 % of control	4 % of control	26 % of control	2 % of control	45 % of control	2 % of control	3 % of control	–	–
CCN1CCC[C@H]1COc1ccc2cc(-c3n[nH]c4ccc(-c5nc(CC(C)(C)C)n[nH]5)cc34)ccc2c1 [CC005, 2-[((2s)-1-ethylpyrrolidin-2-yl)methoxy]-6-{5-[3-(2,2-Dimethylpropyl)(1H-1,2,4,-triazol-5-yl)](1H-indazol-3-yl)}naphthalene]	10 % of control	2 % of control	4 % of control	1 % of control	25 % of control	2 % of control	2 % of control	–	–
Fc1ccc(-c2n[nH]c3ccc(-c4n[nH]c(C5CCCC5)n4)cc23)cc1 [CC006, 5-(5-Cyclopentyl-1H-[1,2,4]triazol-3-yl)-3-(4-fluoro-phenyl)-1H-indazole, reference compound]	12 % of control	74 % of control	82 % of control	3 % of control	72 % of control	13 % of control	43 % of control	–	–
COc1ccc2cc(-c3n[nH]c4ccc(-c5n[nH]c(CN6CCOCC6)n5)cc34)ccc2c1 [CC001, 3-(6-Methoxynaphthalen-2-yl)-5-(5-Morpholin-4-Ylmethyl-1H-[1,2,4]Triazol-3-yl)-1H-Indazole]	12 % of control	52 % of control	64 % of control	2 % of control	62 % of control	4 % of control	4 % of control	–	–
CC(C)(C)Cc1nc(-c2ccc3[nH]nc(-c4ccc5cc(OCc6ccccn6)ccc5c4)c3c2)n[nH]1 [CC004, 5-[5-(2,2-Dimethyl-propyl)-1H-[1,2,4]triazol-3-yl]-3-[6-(pyridine-2-ylmethoxy)-naphthalen-2-yl]-1H-indazole]	24 % of control	54 % of control	52 % of control	1 % of control	76 % of control	5 % of control	29 % of control	good inhibitory activity	good inhibitory activity
O=C(NC1CCCC1)c1cccc(-c2n[nH]c3ccc(-c4nc[nH]n4)cc23)c1 [CC007, 3-(5-(1H-1,2,4-triazol-3-yl)(1H-indazol-3-yl))phenyl-N-cyclopentylcarboxamide, reference compound]	0 % of control	74 % of control	68 % of control	26 % of control	89 % of control	69 % of control	51 % of control	–	–
